Test systems include 786-0; A549; ACHN; CCRF-CEM; DLD-1; IGROV-1; LOX IMVI; M19-MEL; OVCAR-4; OVCAR-5; SF-539; SK-OV-3; SW-620; TK-10; UO-31; Hs-578T; MCF7; MDA-MB-435; PC-3; T47D.
Holding throughout (experiment): NCI tumour cell line growth inhibition, 48 h

Structures are written as SMILES.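 Cells were grown in 96-well plates and exposed to each compound for 48 hours at five concentrations; endpoints were interpolated linearly between bracketing concentrations, or set to the highest concentration if not reached. GI50 marks 50% less growth.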 Activity calls are given as the source filed them. No stated cut-off is given here; in the data, active = GI50 up to about 1.1 µM and inactive = higher.

As to `COc1ccc(/C=C/C(=O)c2sc(-n3nc(-c4ccccc4)cc3-c3ccccc3)nc2C)cc1`, the GI50 in the test on 786-0, in the test with A549, in the test on ACHN, with CCRF-CEM, in the test on DLD-1 and in the test on IGROV-1 was > 10 µM (inactive) in each case. The GI50 in the test with LOX IMVI is > 10 µM (inactive); in the test on M19-MEL, > 10 µM (inactive); with OVCAR-4, 43.6 µM (inactive); in the test on OVCAR-5, > 10 µM (inactive); in the test on SF-539, > 10 µM (inactive); in the test with SK-OV-3, > 10 µM (inactive). The GI50 is > 10 µM (inactive) with SW-620, > 10 µM (inactive) in the test on TK-10 and 31.6 µM (inactive) with UO-31.
For `O=C(O/N=C1/CCC/C1=C\c1ccccc1)c1ccc(Cl)c(Cl)c1`, the GI50 in the test with 786-0, in the test with A549, with ACHN, in the test with CCRF-CEM, with DLD-1 and with IGROV-1 was > 100 µM (inactive) each time. For the same compound, the GI50 is > 100 µM (inactive) in the test on LOX IMVI; > 100 µM (inactive) with M19-MEL; 35 µM (inactive) in the test with OVCAR-4; > 100 µM (inactive) in the test on OVCAR-5; > 100 µM (inactive) with SF-539; > 100 µM (inactive) in the test with SK-OV-3. Also, the GI50 in the test with SW-620, in the test with TK-10 and with UO-31 was > 100 µM (inactive) each time.
Turning to `O=c1oc2ccccc2c(O)c1C(C/C(CCN1CCCC1)=N\Nc1ccccc1)c1ccccc1` (centres undefined), the GI50 in the test with 786-0 was > 100 µM (inactive); in the test with A549, > 100 µM (inactive); with ACHN, 54.8 µM (inactive); in the test with CCRF-CEM, 27.9 µM (inactive); in the test on DLD-1 it was 99.5 µM (inactive); in the test on IGROV-1 it was > 100 µM (inactive). The GI50 in the test on LOX IMVI was 55.6 µM (inactive); in the test on M19-MEL, 61.2 µM (inactive); in the test on OVCAR-4 it was 97.7 µM (inactive); with OVCAR-5 it was > 100 µM (inactive); in the test with SF-539 it was 88.9 µM (inactive); in the test on SK-OV-3, 94.4 µM (inactive). For the same compound, the GI50 is 44.6 µM (inactive) in the test on SW-620, > 100 µM (inactive) in the test on TK-10 and 53.5 µM (inactive) in the test on UO-31.
Turning to `CCN1CCC(O)(c2ccc(C)cc2)C(C(=O)c2ccc(C)cc2)C1` (centres undefined), the GI50 with 786-0 is 13.5 µM (inactive); in the test with A549, > 75.9 µM (inactive); in the test with ACHN, 17.5 µM (inactive); in the test with CCRF-CEM, 18.3 µM (inactive); in the test on DLD-1, 18.1 µM (inactive); in the test on IGROV-1 it was > 42.9 µM (inactive). Moreover, the GI50 with LOX IMVI was 26.2 µM (inactive); in the test on M19-MEL, > 47.3 µM (inactive); with OVCAR-4, 21.5 µM (inactive); in the test with OVCAR-5, 20.2 µM (inactive); with SF-539, > 43.5 µM (inactive); in the test with SK-OV-3 it was > 100 µM (inactive). Also, the figures for the GI50 in the test with SW-620, in the test with TK-10 and with UO-31 were 16.8 µM (inactive), > 44.5 µM (inactive) and 28.2 µM (inactive), respectively.
Take `CCc1ccc(NC(=O)NC(=O)c2ccccc2[N+](=O)[O-])cc1Oc1ncc(Cl)cn1`: the GI50 was 0.0158 µM (active) with 786-0; 0.0213 µM (active) in the test with A549; 0.0386 µM (active) in the test on ACHN; 0.0213 µM (active) with CCRF-CEM; < 0.0192 µM (active) with DLD-1; < 0.01 µM (active) in the test on Hs-578T. The GI50 in the test with IGROV-1 was < 0.0165 µM (active); in the test with LOX IMVI it was 0.0189 µM (active); in the test on M19-MEL, < 0.0275 µM (active); in the test on MCF7, < 0.01 µM (active); in the test with MDA-MB-435, < 0.01 µM (active); with OVCAR-4, 2.61 µM (inactive). Also, the GI50 was < 0.0301 µM (active) in the test on OVCAR-5; < 0.01 µM (active) in the test on PC-3; 0.0137 µM (active) in the test on SF-539; < 0.0164 µM (active) with SK-OV-3; 0.0168 µM (active) with SW-620; 1.96 µM (inactive) in the test on TK-10. Also, the GI50 with UO-31 was < 0.01 µM (active).
`CCOC(=O)C(/N=N\c1ccc(S(N)(=O)=O)cc1)C(C)=O` (centres undefined): the GI50 in the test with 786-0, in the test on A549, in the test on ACHN, with CCRF-CEM, in the test on DLD-1 and in the test on IGROV-1 was > 100 µM (inactive) each time. In addition, the GI50 in the test on LOX IMVI, in the test on M19-MEL, in the test with OVCAR-4, with OVCAR-5, in the test on SF-539 and with SK-OV-3 was > 100 µM (inactive) in each case. The GI50 in the test on SW-620, in the test on TK-10 and in the test on UO-31 was > 100 µM (inactive) throughout.
As to `O=c1cc(-c2ccccc2)oc2ccc(Cl)cc12` [6-CHLOROFLAVONE], the GI50 was 33.3 µM (inactive) in the test on 786-0; > 100 µM (inactive) in the test on A549; 61.2 µM (inactive) in the test with ACHN; > 77.8 µM (inactive) in the test on CCRF-CEM; > 100 µM (inactive) in the test on DLD-1; > 44.8 µM (inactive) with Hs-578T. Moreover, the GI50 was > 82 µM (inactive) in the test with IGROV-1; > 56.4 µM (inactive) in the test with LOX IMVI; > 100 µM (inactive) in the test with M19-MEL; 20.7 µM (inactive) in the test on MCF7; > 41.5 µM (inactive) in the test on MDA-MB-435; > 44.3 µM (inactive) in the test with OVCAR-4. Further, the GI50 is > 100 µM (inactive) in the test with OVCAR-5; > 52.5 µM (inactive) with PC-3; 37.7 µM (inactive) in the test on SF-539; 68.2 µM (inactive) in the test on SK-OV-3; > 92.7 µM (inactive) in the test on SW-620; 19.6 µM (inactive) with T47D. In addition, the GI50 with TK-10 is 50 µM (inactive); in the test on UO-31, 37.4 µM (inactive).
In the case of `CC(=O)OC(C)(C)/C=C/C(=O)[C@](C)(O)[C@H]1[C@H](O)C[C@@]2(C)[C@@H]3CC=C4[C@@H](C[C@H](O)C(=O)C4(C)C)[C@]3(CO)C(=O)C[C@]12C` [CUCURBITACIN A], the GI50 in the test with 786-0 is 0.316 µM (active); with A549, 0.391 µM (active); in the test with ACHN, 0.262 µM (active); with CCRF-CEM, 0.286 µM (active); in the test with DLD-1, 0.337 µM (active); with IGROV-1 it was 0.634 µM (active). The GI50 was 0.207 µM (active) with LOX IMVI; 0.451 µM (active) with M19-MEL; 0.348 µM (active) with OVCAR-4; 0.955 µM (active) with OVCAR-5; 0.285 µM (active) in the test with SF-539; 0.391 µM (active) in the test on SK-OV-3. For the same compound, the GI50 in the test with SW-620 is 0.367 µM (active); in the test with TK-10, 0.179 µM (active); in the test with UO-31, 0.317 µM (active).
Consider `O=NN(CCCl)C(=O)NC1CCCCC1` [LOMUSTINE], for which the GI50 with 786-0 was 16.4 µM (inactive); in the test on A549 it was 51.6 µM (inactive); in the test with ACHN, 69.3 µM (inactive); in the test on CCRF-CEM, 13 µM (inactive); in the test with DLD-1, 30.2 µM (inactive); in the test on Hs-578T it was 37.9 µM (inactive). In addition, the GI50 in the test with IGROV-1 is 47 µM (inactive); with LOX IMVI, 9.91 µM (inactive); in the test on M19-MEL it was 53 µM (inactive); with MCF7 it was 35.5 µM (inactive); with MDA-MB-435 it was 3.36 µM (inactive); with OVCAR-4 it was 61.4 µM (inactive). The GI50 was 81.1 µM (inactive) in the test on OVCAR-5; 32.4 µM (inactive) in the test on PC-3; 24 µM (inactive) with SF-539; 71.8 µM (inactive) with SK-OV-3; 27.7 µM (inactive) in the test with SW-620; 31.6 µM (inactive) in the test on T47D. Also, the GI50 is 73.1 µM (inactive) with TK-10 and 84.1 µM (inactive) in the test with UO-31.

These data come from ChEMBL document CHEMBL1201862, “PubChem BioAssay data set” (2004).
